Measured values reported in PMC5982112 (Peptides, 2018).
Ends that are not written are not given here.

Legend:
[1] = test system: Pseudomonas aeruginosa (PA01, ATTC 47085); assay: Broth dilution sterilization assay, P. aeruginosa; format: cell-based; conditions: lowest concentration that completely sterilizes bacteria in media, mean of at least three independent measurements
[2] = test system: Escherichia coli (ATCC 25922); assay: Broth dilution sterilization assay, E. coli; format: cell-based; conditions: lowest concentration that completely sterilizes bacteria in media, mean of at least three independent measurements
[3] = test system: Staphylococcus aureus (ATCC 25923); assay: Broth dilution sterilization assay, S. aureus; format: cell-based; conditions: lowest concentration that completely sterilizes bacteria in media, mean of at least three independent measurements
Bacillus cereus = assay: Broth dilution sterilization assay, B. cereus; format: cell-based; conditions: lowest concentration that completely sterilizes bacteria in media, mean of at least three independent measurements
[4] = test system: bloodstream (infective) form of Trypanosoma brucei; conditions: cited from earlier work
E. coli = conditions: ref 17 (El Karim et al.); cited from earlier work
S. aureus = conditions: ref 17 (El Karim et al.); cited from earlier work
[5] = test system: Escherichia coli (ATCC 25922); format: cell-based
[6] = test system: Staphylococcus aureus (ATCC 25923); format: cell-based
[7] = test system: procyclic (noninfective) form of T. brucei; conditions: cited from earlier work

| Substance | PA Broth, minimum inhibitory concentration (MIC) [1] [µM] | EC Broth, minimum inhibitory concentration (MIC) [2] [µM] | SA Broth, minimum inhibitory concentration (MIC) [3] [µM] | BC Broth, minimum inhibitory concentration (MIC) (Bacillus cereus) [µM] | Killing of bloodstream (infective) form of Trypanosoma brucei [4] | Activity against E. coli (E. coli) | Activity against S. aureus (S. aureus) | EC Radial Diffusion, minimum inhibitory concentration (MIC) [5] [µM] | SA Radial Diffusion, minimum inhibitory concentration (MIC) [6] [µM] | Effect on procyclic (noninfective) form of T. brucei [7] |
| --- | --- | --- | --- | --- | --- | --- | --- | --- | --- | --- |
| PACAP27 | 23.6 | >30 | >30 | >30 |  |  |  |  |  |  |
| PACAP(6–38) | 30.0 | >30 | >30 | >30 | effective |  |  |  |  |  |
| [Pip^3]PACAP38 | 8.9 | >30 | >30 | 8.9 |  |  |  |  |  |  |
| [Ala^22]PACAP38 | 0.52 | 2.15 | >30 | 4.84 |  |  |  |  |  |  |
| [Pip^3,Aib^16,28,Ala^17,Lys^34,D-Lys^38]PACAP38 | 0.52 | 2.15 | >30 | 3.95 |  |  |  |  |  |  |
| indolicidin | >50 | 6.24 | 7.9 | 10.7 |  |  |  |  |  |  |
| vasoactive intestinal peptide [VIP] | 30.0 | >30 | >30 | >30 |  | had activity against E. coli | not against S. aureus |  |  |  |
| [Pip^3,Aib^16,28,Ala^17,21,Lys^34,D-Lys^38]PACAP38 | 0.64 | 1.43 | >30 | 7.26 |  |  |  |  |  |  |
| RRGWALRLVLAY-NH2 [ARVA] | 4.3 | 2.3 | 5.1 | 6.4 |  |  |  | 1.57 | 3.46 |  |
| Pituitary adenylate cyclase-activating polypeptide [PACAP38] | 1.2 | 28.3 | >30 | 23.3 | killed |  |  |  |  | resistant |
| [D-Ser^2]PACAP38 | 6.1 | >30 | >30 | 13.6 |  |  |  |  |  |  |
